In brackets after ≈: the same amount, converted by molar mass.
Columns and labels:
[1] = system: S. epidermidis 11-1168; format: cell-based; conditions: Staphylococcus epidermidis, 111168, pH 7.2, 32° C. 18 hr, 10^6 cells/ml
[2] = system: E. faecium A24817; format: cell-based; conditions: Enterococcus faecium, pH 7.2, 32° C. 18 hr, 10^6 cells/ml
[3] = system: P. vulgaris IPM-13; format: cell-based; conditions: Proteus vulgaris, IPM13, pH 7.2, 32° C. 18 hr, 10^6 cells/ml
[4] = system: P. aeruginosa A20599; format: cell-based; conditions: Pseudomonas aeruginosa, pH 7.2, 32° C. 18 hr, 10^6 cells/ml
[5] = system: P. cepacia A21213; format: cell-based; conditions: Burkholderia cepacia, pH 7.2, 32° C. 18 hr, 10^6 cells/ml
[6] = system: S. aureus 209P; conditions: Staphylococcus aureus, 18 h, pH 7.2
[7] = system: S. aureus Smith; conditions: Staphylococcus aureus, 18 h, pH 7.2
[8] = system: S. aureus 4-1015 (MRSA); conditions: Staphylococcus aureus, 18 h, pH 7.2
[9] = system: S. aureus IPM-24 (MRSA); conditions: Staphylococcus aureus, 18 h, pH 7.2
[10] = system: S. epidermidis 11-1230; conditions: Staphylococcus epidermidis, 111230, 18 h, pH 7.2
[11] = system: E. faecalis A9808; conditions: Enterococcus faecalis, A9808, 18 h, pH 7.2
[12] = system: M. luteus 1001; conditions: Micrococcus luteus, 1001, 18 h, pH 7.2
[13] = system: B. subtilis PCI 219; conditions: Bacillus subtilis, PCI219, 18 h, pH 7.2
[14] = system: E. coli Juhl A15119; conditions: Escherichia coli, JUHLA15119, 18 h, pH 7.2
[15] = system: E. coli 255; conditions: Escherichia coli, 255, 18 h, pH 7.2
[16] = system: K. pneumoniae PCI 602; conditions: Klebsiella pneumoniae, PCI602, 18 h, pH 7.2
[17] = system: P. mirabilis IFO-2849; conditions: Proteus mirabilis, IFO2849, 18 h, pH 7.2
[18] = system: M. morgani 1510; conditions: 18 h, pH 7.2
[19] = system: M. morgani 1510/9; conditions: 18 h, pH 7.2
[20] = system: P. rettgeri IPM-14; conditions: Providencia rettgeri, IPM14, 18 h, pH 7.2
[21] = system: E. cloacae IPM-12; conditions: Enterobacter cloacae, IPM12, 18 h, pH 7.2
[22] = system: S. marcescens IPM-15; conditions: Serratia marcescens, IPM15, 18 h, pH 7.2
[23] = system: S. marcescens IPM-16; conditions: Serratia marcescens, IPM16, 18 h, pH 7.2
[24] = system: C. freundii GN 7391; conditions: Citrobacter freundii, GN7391, 18 h, pH 7.2
[25] = system: P. aeruginosa KKA 19; conditions: Pseudomonas aeruginosa, KKA19, 18 h, pH 7.2
[26] = system: P. aeruginosa IPM-8; conditions: Pseudomonas aeruginosa, IPM8, 18 h, pH 7.2
[27] = system: P. aeruginosa IPM-9; conditions: Pseudomonas aeruginosa, IPM9, 18 h, pH 7.2
[28] = system: X. maltophilia GN 12873; conditions: Stenotrophomonas maltophilia, GN12873, 18 h, pH 7.2
[29] = system: X. maltophilia No. 661; conditions: Stenotrophomonas maltophilia, NO.661, 18 h, pH 7.2
[30] = system: P. cepacia No. 651; conditions: Burkholderia cepacia, NO.651, 18 h, pH 7.2
[31] = system: C. terrigena IFO 12685; conditions: 18 h, pH 7.2
[32] = system: Penicillin (PC)sensitive S. (5 strains); experiment: MIC, two-fold serial agar dilution, Mueller-Hinton agar (geometric mean, group Gp-Ia); format: cell-based, S. aureus; conditions: Staphylococcus aureus
Procedure: (§1) For a primary evaluation of some representative compounds of this invention, minimum inhibitory concentrations (MIC's) were determined against 32 strains of test organisms by two-fold serial agar dilution method in Mueller-Hinton agar.
Gp-Ia: Penicillin (PC)sensitive S.

[33] = system: PCresistant S. aureus; experiment: MIC, two-fold serial agar dilution, Mueller-Hinton agar (geometric mean, group Gp-Ib); format: cell-based; conditions: Staphylococcus aureus, penicillin-resistant S. aureus, 5 strains
Procedure: as §1
GpIb: PCresistant S. aureus

[34] = system: Cephalothin (CET)sensitive E. coli(2), Kl. pneumoniae(1) and Pr. mirabilis(2); experiment: MIC, two-fold serial agar dilution, Mueller-Hinton agar (geometric mean, group Gn-Ia); format: cell-based; conditions: 5 strains
Procedure: as §1
GnIa: Cephalothin (CET)sensitive E. coli(2)*, Kl. pneumoniae(1) and Pr.

[35] = system: CETresistant E. coli(3), and Kl. pneumoniae(2); experiment: MIC, two-fold serial agar dilution, Mueller-Hinton agar (geometric mean, group Gn-Ib); format: cell-based; conditions: Escherichia coli, read-out: Geometric Mean of MIC, Gn-Ib
Procedure: as §1
GnIb: CETresistant E. coli(3), and Kl. pneumoniae(2)

[36] = system: M. morganii(1), Ent. cloacae(2), and Ser. marcescens(2); experiment: MIC, two-fold serial agar dilution, Mueller-Hinton agar (geometric mean, group Gn-II); format: cell-based; conditions: 5 strains
Procedure: as §1
GnII: M. morganii(1), Ent. cloacae(2), and Ser. marcescens(2)

[37] = system: Ps. aeruginosa (7); experiment: MIC, two-fold serial agar dilution, Mueller-Hinton agar (geometric mean, group Gn-III); format: cell-based; conditions: Pseudomonas aeruginosa, 7 strains
Procedure: as §1
GnIII: Ps. aeruginosa (7)

[38] = system: B. fragilis A 22693; experiment: In vitro activity against anaerobes (MIC), two-fold serial agar dilution, GAM agar; format: cell-based; conditions: Bacteroides fragilis, A22693, Gn, Beta-Lactamase(-)
[39] = system: B. fragilis A 22053; experiment: as above; format: cell-based; conditions: Bacteroides fragilis, A22053, Gn, Beta-Lactamase(-)
[40] = system: B. fragilis A 22021; experiment: as above; format: cell-based; conditions: Bacteroides fragilis, A22021, Gn, Beta-Lactamase(-)
[41] = system: B. fragilis A 21916; experiment: as above; format: cell-based; conditions: Bacteroides fragilis, A21916, Gn, Beta-Lactamase(-)
[42] = system: B. fragilis A 22534; experiment: as above; format: cell-based; conditions: Bacteroides fragilis, A22534, Gn, Beta-Lactamase(+)
[43] = system: B. fragilis A 22695; experiment: as above; format: cell-based; conditions: Bacteroides fragilis, A22695, Gn, Beta-Lactamase(+)
[44] = system: B. fragilis A 22533; experiment: as above; format: cell-based; conditions: Bacteroides fragilis, A22533, Gn, Beta-Lactamase(+)
[45] = system: B. fragilis CUH-108; experiment: as above; format: cell-based; conditions: Bacteroides fragilis, CUH108, Gn, Beta-Lactamase(+), Clindamycin-resistant
Procedure: In vitro activity against anaerobic bacteria was determined on eight strains of B. fragilis by two-fold serial agar dilution method in GAM agar.

[46] = system: C. difficile A 21675; experiment: In vitro activity against anaerobes (MIC); format: cell-based; conditions: Clostridioides difficile, A21675, Gp, Clindamycin-resistant
[47] = system: C. perfringens A9635; experiment: microbe, parasite or virus in culture; format: cell-based; conditions: Clostridium perfringens
[48] = system: P. acnes A 21933; experiment: In vitro activity against anaerobes (MIC); format: cell-based; conditions: Cutibacterium acnes, A21933, Gp

Molecule `Nc1nc(/C(=N/O)C(=O)NC2C(=O)N3C(C(=O)O)=C(/C=C/COC(=O)c4ccc(O)c(O)c4)CSC23)cs1` (stereo not drawn) [Id, 7-[(Z)-2-(2-Aminothiazol-4-yl)-2-hydroxyiminoacetamido]-3-[(E)-3l-(3,4-dihydroxybenzoyloxy)-1-propen-1-yl]-3-cephem-4-carboxylic acid] has an MIC [1] of 3.1 µg/mL (≈ 5.52 µM), an MIC [2] of 100 µg/mL (≈ 178 µM) and an MIC [3] greater than 100 µg/mL. The MIC [4] was greater than 100 µg/mL, the MIC [5] was greater than 100 µg/mL and the MIC [6] was 0.8 µg/mL (≈ 1.42 µM). The MIC [7] was 0.8 µg/mL (≈ 1.42 µM), the MIC [8] was 6.3 µg/mL (≈ 11.2 µM) and the MIC [9] was 100 µg/mL (≈ 178 µM). The MIC [10] was 6.3 µg/mL (≈ 11.2 µM), the MIC [11] was 12.5 µg/mL (≈ 22.3 µM) and the MIC [12] was 0.2 µg/mL (≈ 0.356 µM). The MIC [13] was 0.4 µg/mL (≈ 0.712 µM), the MIC [14] was 0.2 µg/mL (≈ 0.356 µM) and the MIC [15] was 0.8 µg/mL (≈ 1.42 µM). For the same molecule, the MIC [16] was 0.025 µg/mL (≈ 0.0445 µM), the MIC [17] was 0.2 µg/mL (≈ 0.356 µM) and the MIC [18] was 6.3 µg/mL (≈ 11.2 µM). It also gave an MIC [19] of 0.2 µg/mL (≈ 0.356 µM), an MIC [20] of 0.4 µg/mL (≈ 0.712 µM) and an MIC [21] greater than 100 µg/mL. For the same molecule, the MIC [22] was greater than 100 µg/mL, the MIC [23] was greater than 100 µg/mL and the MIC [24] was 50 µg/mL (≈ 89 µM). For the same molecule, the MIC [25] was greater than 100 µg/mL, the MIC [26] was greater than 100 µg/mL and the MIC [27] was greater than 100 µg/mL. For the same molecule, the MIC [28] was greater than 100 µg/mL, the MIC [29] was greater than 100 µg/mL and the MIC [30] was greater than 100 µg/mL. The MIC [31] was 0.8 µg/mL (≈ 1.42 µM).
With `CO/N=C(\C(=O)NC1C(=O)N2C(C(=O)O)=C(/C=C/COC(=O)Nc3ccc(O)c(O)c3)CSC12)c1csc(N)n1` (stereo not drawn) [Ie, 7-[(Z)-2-(2-Aminothiazol-4-yl)-2-methoxyiminoacetamido]-3-[(E)-3-(N-3,4-dihyroxyphenyl)carbamoyloxy-1-propen-1-yl]-3-cephem-4-carboxylic acid] the MIC [32] was 6.3 µg/mL (≈ 10.7 µM), the MIC [33] was 7.2 µg/mL (≈ 12.2 µM) and the MIC [34] was 0.23 µg/mL (≈ 0.389 µM). The MIC [35] was 0.46 µg/mL (≈ 0.779 µM), the MIC [36] was 3.6 µg/mL (≈ 6.1 µM) and the MIC [37] was 50 µg/mL (≈ 84.7 µM). For the same molecule, the MIC [38] was 3.1 µg/mL (≈ 5.25 µM), the MIC [39] was 3.1 µg/mL (≈ 5.25 µM) and the MIC [40] was 0.4 µg/mL (≈ 0.677 µM). For the same molecule, the MIC [41] was 6.3 µg/mL (≈ 10.7 µM), the MIC [42] was greater than 100 µg/mL and the MIC [43] was 25 µg/mL (≈ 42.3 µM). It also gave an MIC [44] greater than 100 µg/mL, an MIC [45] of 100 µg/mL (≈ 169 µM) and an MIC [46] of 50 µg/mL (≈ 84.7 µM). It also gave an MIC [47] of 1.6 µg/mL (≈ 2.71 µM) and an MIC [48] of 1.6 µg/mL (≈ 2.71 µM).

— patent US5143911A, “Antibiotic C-3 di-hydroxyphenyl substituted cephalosporin compounds, compositions and method of use thereof” (Bristol-Myers Squibb Company, priority 1990, dated 1992)
